# Assay results published in ChEMBL document CHEMBL1144064, “Biological evaluation of proanthocyanidin dimers and related polyphenols” (J Nat Prod, 1999).
# The source made the active and inactive calls. The calls are words filed in the database; no cut-off is given here.
# Tests used:
# [1] = Modulation of alternative complement pathway system assessed as hemoglobin release by spectrophotometry
# Escherichia coli = test: Antimicrobial activity against Escherichia coli; type: functional
# Staphylococcus aureus = test: Antimicrobial activity against Staphylococcus aureus; type: functional
# [2] = Selectivity index, ratio of CC50 for human MT4 cells to IC50 for HIV infected in human MT4 cells; type: functional
# Candida albicans = test: Antimicrobial activity against Candida albicans; type: functional
# Simplexvirus = test: Antiviral activity against HSV up to 200 ug/mL by extracellular virucidal assay; type: functional, organism-based
# [3] = system: Mycolicibacterium fortuitum; test: Antimicrobial activity against Mycobacterium fortuitum; type: functional
# Salmonella paratyphi = test: Antimicrobial activity against Salmonella paratyphi; type: functional, Salmonella enterica subsp. enterica serovar Paratyphi A; details: Salmonella enterica
# [4] = Cytotoxicity against human MT4 cells by MTT assay; type: cell-based
# Enterobacter cloacae = test: Antimicrobial activity against Enterobacter cloacae; type: functional
# Klebsiella pneumoniae = test: Antimicrobial activity against Klebsiella pneumoniae; type: functional
# Proteus vulgaris = test: Antimicrobial activity against Proteus vulgaris; type: functional
# [5] = Modulation of classical complement pathway system assessed as hemoglobin release by spectrophotometry
# [6] = Antioxidant activity assessed as superoxide radical anion scavenging activity; type: functional
# [7] = system: Human immunodeficiency virus; test: Antiviral activity against HIV infected in human MT4 cells assessed as inhibition of virus-induced cytopathic effect by MTT assay; type: functional, organism-based; details: Human immunodeficiency virus 1, MT4
# Pseudomonas aeruginosa = test: Antimicrobial activity against Pseudomonas aeruginosa; type: functional
# Streptococcus pyogenes = test: Antimicrobial activity against Streptococcus pyogenes; type: functional
# Bacillus cereus = test: Antimicrobial activity against Bacillus cereus; type: functional
Compound,IC50 [1] [µM],MBC (Escherichia coli) [µg/mL],MIC (Escherichia coli) [µg/mL],MBC (Staphylococcus aureus) [µg/mL],MIC (Staphylococcus aureus) [µg/mL],Ratio CC50/IC50 [2],MBC (Candida albicans) [µg/mL],MIC (Candida albicans) [µg/mL],Activity (Simplexvirus),MBC [3] [µg/mL],MIC [3] [µg/mL],MBC (Salmonella paratyphi) [µg/mL],MIC (Salmonella paratyphi) [µg/mL],CC50 [4] [µg/mL],MBC (Enterobacter cloacae) [µg/mL],MIC (Enterobacter cloacae) [µg/mL],IC50 [5] [µM],IC50 [6] [µM],IC50 [7] [µg/mL],MBC (Pseudomonas aeruginosa) [µg/mL],further results
Oc1cc(O)c2c(c1)O[C@H](c1cc(O)c(O)c(O)c1)[C@H](O)C2 [EPIGALLOCATECHIN],179,> 100,> 100,> 100,> 100,<1,> 100,> 100,inactive,> 100,> 100,> 100,> 100,16.1,> 100,> 100,19.6,3.4,> 16.1,> 100,MBC (Klebsiella pneumoniae): 100 µg/mL; MIC (Klebsiella pneumoniae): 100 µg/mL; MBC (Proteus vulgaris): 100 µg/mL; MIC (Proteus vulgaris): 50 µg/mL; MIC (Pseudomonas aeruginosa): > 100 µg/mL
Oc1cc(O)c2c(c1)O[C@@]1(c3ccc(O)c(O)c3)Oc3cc(O)c4c(c3[C@@H]2[C@H]1O)O[C@H](c1ccc(O)c(O)c1)[C@H](O)C4 [PROANTHOCYANIDIN A2],113,> 100,> 100,> 100,> 100,24,> 100,> 100,inactive,> 100,> 100,> 100,> 100,138,> 100,> 100,11.6,17.8,5.8,> 100,MBC (Streptococcus pyogenes): 50 µg/mL; MIC (Streptococcus pyogenes): 50 µg/mL; MIC (Bacillus cereus): 100 µg/mL; MIC (Pseudomonas aeruginosa): > 100 µg/mL
